{"source": "patent EP4458358A1", "about": "“PYRIDAZINE COMPOUNDS FOR ANTIFIBROTIC THERAPY” (Tietze Chemical Consulting UG, priority 2023, dated 2024)", "format_in_all_cases": "cell-based", "key": {"UKE1": {"tested_on": "UKE1", "experiment": "ELISA of secreted pro-collagen I alpha 1 (Type I Collagen) from human dermal fibroblasts UKE1", "protocol": "(§1) Compounds reconstitution and stock solution: Prior to treatment, DMSO was diluted in PMS until 0,1% DMSO was made. Each compound was solved in 0,1% DMSO (3: 2,5 mg/mL, 1: 2.5 mg/mL, 10: 1 mg/mL, 5: 1mg/mL, 7: 0,6 mg/mL, 16: 1 mg/mL 17: 1 mg/mL, 44: 0,6 mg/mL, 36: 1mg/mL.\n(§2) Next the different stock solution with 150 µg and 250 µg of each compound per 1 ml culture solution was made by adding the 0,1% DMSO compound solution in the right amount to culture solution (DMEM with 10% FCS and 1% penicillin-streptomycin).\n(§3) Three different cell lines were used for the experiments. GM637 is an immortalized cell line originated from human skin fibroblasts, bought in 2001, UKE1 and […] are cell lines originated from human dermal fibroblasts (dog ear) nurtured from patients, between 60 and 80 years old being completely anonymized at the clinic for dermatology, Rostock.\n(§4) The cells lines were thawed and were cultured in Dulbeco's modified Eagel's medium (DMEM, Gibcon, USA) supplemented with 10% fetal bovine serum (FBS, Gibco, Germany) and 1% penicillin-streptomycin (PS, Gibco, USA) at 37 °C in a humidified atmosphere with 5% CO2 until a sufficient number of cells were culture in T75 culture bottles. After reaching a confluence of 80% to 90%, the cells were separated using trypsin and counted. Next 100.000 cells were planted in each well of a 6 well plate in replicates, washed and the DMEM solution with 150 µg and 250 µg/ml substance/DMEM and DMEM with no substance as control was added.\n(§5) After 48h and after 72h 100 µl supernatant of each well was taken, labelled and frozen at -20° degree Celsius. Prior to perform ELISA the medium was depending on the cell line diluted 1:50 or 1:100 with PBS, otherwise the concentration of collagen fibers was too high to be measured.\n(§6) The media containing the secretion of the different human dermal fibroblasts GM637, UKE1, and HRO159N were collected after 48h and 72h treatment. Secretion of pro-collagen 1 was assessed with human pro-collagen I alpha 1 DuoSet ELISA (R&D systems, USA) To prepare the Elisa plate, Human pro-Collagen I a capture antibody was diluted in ELISA plate-coating buffer at 4µg/mL working concentration. 100 µl of diluted Capture antibody was added to 96-well microplates and incubated over night at room temperature. After three times washing with Wash Buffer, microplates were blocked by adding 300 µl of Reagent Diluent for 1 hour at room temperature. To proceed the ELISA Human pro-collagen I α1 Standards were diluted in Reagent Diluent (range between 31,3 pg/mL - 2000 pg/mL) and 100 µl of standards or conditioned mediums were added to designated wells. Microplates were incubated at room temperature for 2 hours. Human Pro-collagen I α1 Detection Antibody was prepared in Reagent Diluent at […] working concentration and 100 µl of diluted Detection Antibody was applied for 2 hours at room temperature after extensive washing. Then, working solution of Streptavidin-HRP with Reagent Diluent was prepared by diluting 1:40 and added into each well. After 20 minutes at room temperature incubation, microplates were washed and applied with 100 µl of Substrate Solution for 20 minutes followed by Stop Solution after washing. Finally, signals were measured at 450 nm absorbance by PHomo Microplate Reader (Autobio, China) The amount of pro-collagen 1 was quantified by extrapolating the signal into a linear range of a pro-collagen 1 standard curve. Screening compounds were typically tested at concentration of 150 and 250 µg/mL. The dose response data for each compound and the different cell lines were obtained by nonlinear regression analysis using Prism 9 software (GraphPad, La Jolla, USA)."}, "MRCVI": {"tested_on": "MRCVI", "experiment": "ELISA of secreted pro-collagen I alpha 1 (Type I Collagen) from human lung fibroblast MRCVI", "protocol": "as §1, §2\nAs cell line MRCV1 was used, which is an immortalized cell line originated from human lung fibroblast, bought in 2001.\nas §4, with “cell line was” for “cells lines were”, “and” for “and were”\nas §5\nThe medium containing the secretion of the human lung fibroblast MRCVI was collected after 48h and 72h treatment. Secretion of pro-collagen 1 was assessed with human pro-collagen I alpha 1 DuoSet ELISA (R&D systems, USA) To prepare the Elisa plate, Human pro-Collagen I a capture antibody was diluted in ELISA plate-coating buffer at 4µg/mL working concentration. 100 µl of diluted Capture antibody was added to 96-well microplates and incubated over night at room temperature. After three times washing with Wash Buffer, microplates were blocked by adding 300 µl of Reagent Diluent for 1 hour at room temperature. To proceed the ELISA Human pro-collagen I α1 Standards were diluted in Reagent Diluent (range between 31,3 pg/mL - 2000 pg/mL) and 100 µl of standards or conditioned mediums were added to designated wells. Microplates were incubated at room temperature for 2 hours. Human Pro-collagen I α1 Detection Antibody was prepared in Reagent Diluent at […] working concentration and 100 µl of diluted Detection Antibody was applied for 2 hours at room temperature after extensive washing. Then, working solution of Streptavidin-HRP with Reagent Diluent was prepared by diluting 1:40 and added into each well. After 20 minutes at room temperature incubation, microplates were washed and applied with 100 µl of Substrate Solution for 20 minutes followed by Stop Solution after washing. Finally, signals were measured at 450 nm absorbance by PHomo Microplate Reader (Autobio, China) The amount of pro-collagen 1 was quantified by extrapolating the signal into a linear range of a pro-collagen 1 standard curve. Screening compounds were typically tested at concentration of 150 and 250 µg/mL. The dose response data for each compound and the different cell lines were obtained by nonlinear regression analysis using Prism 9 software (GraphPad, La Jolla, USA)."}, "GM637": {"tested_on": "GM637", "experiment": "ELISA of secreted pro-collagen I alpha 1 (Type I Collagen) from human dermal fibroblasts GM637", "protocol": "as §1, §2, §3, §4, §5, §6"}, "HRO159N": {"tested_on": "HRO159N", "experiment": "ELISA of secreted pro-collagen I alpha 1 (Type I Collagen) from human dermal fibroblasts HRO159N", "details": "250 µg", "protocol": "as §1, §2, §3, §4, §5, §6"}}}
{"smiles": "c1nn2nnnc2c2cscc12", "note": "[Compound 17, Tetrazolo[1,5-b]thieno[3,4-d]pyridazine]", "values": [{"measurement": "collagen reduction percentage in comparison to the standard (100 %)", "setting": "UKE1; 48h, 150 µg", "value": 102, "unit": "%"}, {"measurement": "collagen reduction percentage in comparison to the standard (100 %)", "setting": "UKE1; 48h, 250 µg", "value": 86, "unit": "%"}, {"measurement": "collagen reduction percentage in comparison to the standard (100 %)", "setting": "UKE1; 72 h, 150 µg", "value": 76, "unit": "%"}, {"measurement": "collagen reduction percentage in comparison to the standard (100 %)", "setting": "UKE1; 72 h, 250 µg", "value": 59, "unit": "%"}, {"measurement": "collagen reduction percentage in comparison to the standard (100 %)", "setting": "MRCVI; 48h, 150 µg", "value": 33, "unit": "%"}, {"measurement": "collagen reduction percentage in comparison to the standard (100 %)", "setting": "MRCVI; 48h, 250 µg", "value": 16, "unit": "%"}, {"measurement": "collagen reduction percentage in comparison to the standard (100 %)", "setting": "MRCVI; 72 h, 150 µg", "value": 35, "unit": "%"}, {"measurement": "collagen reduction percentage in comparison to the standard (100 %)", "setting": "MRCVI; 72 h, 250 µg", "value": 11, "unit": "%"}, {"measurement": "collagen reduction percentage in comparison to the standard (100 %)", "setting": "GM637; 48h, 150 µg", "value": 90, "unit": "%"}, {"measurement": "collagen reduction percentage in comparison to the standard (100 %)", "setting": "GM637; 48h, 250 µg", "value": 62, "unit": "%"}, {"measurement": "collagen reduction percentage in comparison to the standard (100 %)", "setting": "GM637; 72 h, 150 µg", "value": 103, "unit": "%"}, {"measurement": "collagen reduction percentage in comparison to the standard (100 %)", "setting": "GM637; 72 h, 250 µg", "value": 55, "unit": "%"}, {"measurement": "collagen reduction percentage in comparison to the standard (100 %)", "setting": "HRO159N; 48h", "value": 34, "unit": "%"}, {"measurement": "collagen reduction percentage in comparison to the standard (100 %)", "setting": "HRO159N; 72 h", "value": 4, "unit": "%"}]}
